Results taken from PMC4303209, “A novel phosphatidylinositol 3-kinase (PI3K) inhibitor directs a potent FOXO-dependent, p53-independent cell cycle arrest phenotype characterized by the differential induction of a subset of FOXO-regulated genes” (Breast Cancer Research : BCR, 2014).

Test system: MCF-7 breast cancer cells
Experiment: Microarray gene expression analysis (Agilent whole human genome 4 x 44K; compound vs DMSO, LIMMA log2 fold change)
Format: cell-based

Structure (SMILES): Oc1cccc(-c2nc(N3CCOCC3)c3oc4ncccc4c3n2)c1 [PI-103]
- log2FC SENP2 (gene SENP2 (Gene 59343), cell cycle genes): -0.06
- SERINC3 log2FC (gene SERINC3 (10955), apoptosis genes): 0.115
- SERPINE1 log2FC (gene SERPINE1 (5054), apoptosis genes): -0.018
- log2FC (gene SESN1 (Gene 27244), cell cycle genes): -0.06
- SHF log2FC (gene SHF (90525), apoptosis genes): 0.016
- SKIL log2FC (gene SKIL (6498), apoptosis genes): 0.039
- log2FC SKIL (gene SKIL (Gene 6498), cell cycle genes): 0.04
- log2FC (gene SLBP (Gene 7884), cell cycle genes): 0.11
- SLC25A6 log2FC (gene SLC25A6 (293), apoptosis genes): -0.018
- log2FC SLC26A8 (gene SLC26A8 (Gene 116369), cell cycle genes): -0.065
- SLC40A1 log2FC (gene SLC40A1 (30061), apoptosis genes): -0.00212
- SMAD1 log2FC (gene SMAD1 (4086), apoptosis genes): -0.215
- SMNDC1 log2FC (gene SMNDC1 (10285), apoptosis genes): -0.319
- SOD1 log2FC (gene SOD1 (6647), apoptosis genes): 0.105
- SOS1 log2FC (gene SOS1 (6654), apoptosis genes): 0.010
- SOX8 log2FC (gene SOX8 (30812), apoptosis genes): -0.456
- log2FC SPO11 (gene SPO11 (Gene 23626), cell cycle genes): 0.0237
- SPTAN1 log2FC (gene SPTAN1 (6709), apoptosis genes): 0.362
- log2FC (gene SRC (Gene 6714), cell cycle genes): -0.35
- log2FC (gene STAG1 (Gene 10274), cell cycle genes): 0.32
- STK3 log2FC (gene STK3 (6788), apoptosis genes): 0.109
- SULF1 log2FC (gene SULF1 (23213), apoptosis genes): -0.171
- log2FC (gene SUPT5H (Gene 6829), cell cycle genes): 0.00774
- log2FC (gene SUV39H2 (Gene 79723), cell cycle genes): -0.56
- SYCP2 log2FC (gene SYCP2 (10388), apoptosis genes): 0.019
- log2FC SYCP2 (gene SYCP2 (Gene 10388), cell cycle genes): 0.02
- log2FC SYCP3 (gene SYCP3 (Gene 50511), cell cycle genes): -0.03
- log2FC (gene TAF2 (Gene 6873), cell cycle genes): 0.21
- log2FC TAF6 (gene TAF6 (Gene 6878), cell cycle genes): 0.22
- log2FC (gene TAOK2 (Gene 9344), cell cycle genes): -0.25
- TEK log2FC (gene TEK (7010), apoptosis genes): -0.024
- log2FC (gene TEX14 (Gene 56155), cell cycle genes): 0.17
- log2FC (gene TEX15 (Gene 56154), cell cycle genes): 0.23
- TFAP2D log2FC (gene TFAP2D (83741), apoptosis genes): 0.021
- log2FC (gene TGFA (Gene 7039), cell cycle genes): -0.53
- TGFB2 log2FC (gene TGFB2 (7042), apoptosis genes): -0.026
- log2FC TGFB2 (gene TGFB2 (Gene 7042), cell cycle genes): -0.0258
- THEM4 log2FC (gene THEM4 (117145), apoptosis genes): -0.280
- log2FC THOC5 (gene THOC5 (Gene 8563), cell cycle genes): 0.0165
- TMBIM4 log2FC (gene TMBIM4 (51643), apoptosis genes): -0.154
- log2FC (gene TMEM67 (Gene 91147), cell cycle genes): 0.17
- TMEM102 log2FC (gene TMEM102 (284114), apoptosis genes): 0.338
- TNFRSF1B log2FC (gene TNFRSF1B (7133), apoptosis genes): -0.040
- TNFRSF8 log2FC (gene TNFRSF8 (943), apoptosis genes): 0.099
- TNFRSF10C log2FC (gene TNFRSF10C (8794), apoptosis genes): 0.011
- TNFSF8 log2FC (gene TNFSF8 (944), apoptosis genes): -0.011
- TNFSF9 log2FC (gene TNFSF9 (8744), apoptosis genes): 0.192
- TNFSF10 log2FC (gene TNFSF10 (8743), apoptosis genes): 0.00148
- TNFSF12 log2FC (gene TNFSF12 (8742), apoptosis genes): 0.353
- TNFSF14 log2FC (gene TNFSF14 (8740), apoptosis genes): 0.027
- TNFSF15 log2FC (gene TNFSF15 (9966), apoptosis genes): 0.054
- TNFSF18 log2FC (gene TNFSF18 (8995), apoptosis genes): 0.071
- log2FC (gene TP73 (Gene 7161), cell cycle genes): -0.25
- log2FC (gene TPD52L1 (Gene 7164), cell cycle genes): 0.15
- TPX2 log2FC (gene TPX2 (22974), apoptosis genes): -0.00173
- TRAF2 log2FC (gene TRAF2 (7186), apoptosis genes): -0.347
- TRAF3IP2 log2FC (gene TRAF3IP2 (10758), apoptosis genes): -0.037
- log2FC TRIP13 (gene TRIP13 (Gene 9319), cell cycle genes): -0.38
- log2FC (gene TUBGCP6 (Gene 85378), cell cycle genes): -0.19
- TXNDC5 log2FC (gene TXNDC5 (81567), apoptosis genes): -0.039
- log2FC TYMS (gene TYMS (Gene 7298), cell cycle genes): -0.08
- UBD log2FC (gene UBD (10537), apoptosis genes): -0.037
- UBE2V2 log2FC (gene UBE2V2 (7336), apoptosis genes): -0.365
- UNC13B log2FC (gene UNC13B (10497), apoptosis genes): 0.046
- VDAC2 log2FC (gene VDAC2 (7417), apoptosis genes): -0.094
- VIM log2FC (gene VIM (7431), apoptosis genes): 0.122
- VIP log2FC (gene VIP (7432), apoptosis genes): -0.302
- VNN1 log2FC (gene VNN1 (8876), apoptosis genes): -0.010
- log2FC (gene VRK1 (Gene 7443), cell cycle genes): 0.16
- WNK3 log2FC (gene WNK3 (65267), apoptosis genes): -0.015
- log2FC (gene WTAP (Gene 9589), cell cycle genes): -0.47
- log2FC (gene YY1AP1 (Gene 55249), cell cycle genes): 0.31
- ZBTB16 log2FC (gene ZBTB16 (7704), apoptosis genes): -0.00549
- log2FC ZC3H12D (gene ZC3H12D (Gene 85313), cell cycle genes): -0.0743
- log2FC (gene ZC3HC1 (Gene 51530), cell cycle genes): 0.16
- ZNF205 log2FC (gene ZNF205 (7755), apoptosis genes): -0.247
- ZNF443 log2FC (gene ZNF443 (10224), apoptosis genes): -0.204
- log2FC (gene ZNF503 (Gene 84858), cell cycle genes): -0.12
- ZNF622 log2FC (gene ZNF622 (90441), apoptosis genes): -0.120
